Assay [1] has as its target T1, 5-lipoxygenase (Homo sapiens, UniProt P09917).
T1 construct: Human PMN's (5 x 10⁶ cells/0.5 mL) in pH 7.2 phosphate buffer; endogenous in cells; host or cells: human polymorphonuclear leukocytes (PMN)
T1 sequence (P09917 1-674): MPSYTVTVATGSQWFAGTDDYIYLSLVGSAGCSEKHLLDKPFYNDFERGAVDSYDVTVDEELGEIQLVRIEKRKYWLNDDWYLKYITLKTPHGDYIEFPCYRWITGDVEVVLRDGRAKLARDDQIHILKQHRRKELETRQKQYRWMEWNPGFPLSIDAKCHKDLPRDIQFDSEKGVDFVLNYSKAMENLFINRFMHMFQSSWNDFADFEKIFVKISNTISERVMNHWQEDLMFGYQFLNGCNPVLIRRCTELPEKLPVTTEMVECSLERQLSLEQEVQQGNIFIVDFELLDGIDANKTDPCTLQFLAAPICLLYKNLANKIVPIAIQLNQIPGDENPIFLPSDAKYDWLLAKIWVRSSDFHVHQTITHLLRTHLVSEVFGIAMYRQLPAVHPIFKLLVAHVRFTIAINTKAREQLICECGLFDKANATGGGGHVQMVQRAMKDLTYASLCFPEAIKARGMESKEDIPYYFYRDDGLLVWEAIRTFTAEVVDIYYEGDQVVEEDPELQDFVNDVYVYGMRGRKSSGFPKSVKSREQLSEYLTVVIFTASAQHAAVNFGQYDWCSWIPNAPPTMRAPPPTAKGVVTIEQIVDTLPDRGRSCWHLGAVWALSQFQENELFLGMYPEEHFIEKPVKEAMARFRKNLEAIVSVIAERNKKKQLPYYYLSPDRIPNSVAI
The assay can be described thus: Inhibition of 5-lipoxygenase (5-HETE biosynthesis) in human polymorphonuclear leukocytes. The assay is classed as cell-based. The note with it: human PMN's, 5-HETE band vs control; test concentration 1 microM; read-out: Inhibition of 5-LO % at 1 M. As to the method:
Inhibition of 5-Lipoxygenase in Human Polymorphonuclear Leukocytes (PMN's)
The inhibition of 5-lipoxygenase is measured by determining whether and to what extent test compounds inhibit the amount of 5-HETE biosynthesized by human PMN's. 5-HETE biosynthesis serves as a marker for arachidonic acid metabolism by 5-lipoxygenase.
Human PMN's (5 x 10⁶ cells/0.5 mL) in pH 7.2 phosphate buffer containing Ca²⁺ (0.6 mM) and Mg²⁺ (1.0 mM) were incubated with test compound for 15 minutes at 37°C with shaking. Calcium ionophore A23187 (0.25 mM, 0.01 mL) and [¹⁴C] arachidonic acid (0.10 microCi in 0.025 mL 0.01N NaOH) were added, and the mixture incubated another 2.5 minutes. The reaction was terminated by the addition of 0.025 mL of 1.0 N HCl. The mixture was then extracted with ethyl acetate-methylene chloride (2:3) supplemented with 12 microgram/mL cold arachidonic acid to reduce degradation of the metabolites. After concentrating the organic phase, the number of microlitres containing 5 x 10⁴ cpm was determined and that volume applied to a silica gel plate. The plate was developed in methylene-chloride-methanol-acetic acid-water (90:8:1:0.8), air dried, and counted on a Berthold linear TLC analyzer. The integrated area of the 5-HETE band was determined and compared with the control (no drug).
In cases where the IC₅₀ was determined, the result is shown in microM.

Assay [2] concerns 5-lipoxygenase. The assay can be described thus: Inhibition of antigen-induced, late phase inflammatory cell infiltration in guinea pigs. It counts as in vivo. The note with it: 60 minutes before antigen challenge, lung lavage four hours after challenge. An excerpt:
Inhibition of Antigen-Induced, Late Phase Inflammatory Cell Infiltration in Guinea Pigs
This model is used to measure the ability of a drug to inhibit 5-lipoxygenase in vivo. In addition to SRS-A, a chemotactic substance LTB₄ is also released by cells in the sensitized guinea pig lung upon stimulation by antigen. As a result there is a measurable influx of cells into the lung. Therefore, an inhibitor of 5-lipoxygenase could reduce the formation of LTB₄ and thereby reduce the cell influx into the lung.
Male outbred Hartley strain albino guinea pigs (250-300 grams) were sensitized to ovalbumin as in the procedure for inhibition of antigen-induced, SRS-A mediated bronchioconstriction in conscious guinea pigs.
Sensitized guinea pigs were fasted and pretreated with pyrilamine and indomethacin as in bronchioconstriction testing procedure. Test compounds, suspended in 1% acacia, were administered 60 minutes before antigen challenge. […] Whole lung lavage was performed with three 5 mL aliquots of normal saline buffered with sodium bicarbonate.
Total cell counts were performed on a Coulter Counter, and differential cell counts were performed. Compounds were evaluated for their ability to alter the antigen-induced total cell influx and, more specifically, neutrophil (PMN) influx.

The test system of assay [3] is A23187-Induced LTB₄ Generation. Briefly: Ex vivo inhibition of A23187-induced LTB4 generation in squirrel monkey blood. Set-up: species or system Squirrel Monkeys. The note with it: Primates. The protocol:
Ex Vivo Inhibition of A23187-Induced LTB₄ Generation in Squirrel Monkeys.
Incubation of squirrel monkey whole blood with calcium ionophore A23187 stimulates the production of LTB₄. This LTB₄ production can be inhibited by a lipoxygenase inhibitor in vitro by incubating the blood with the inhibitor prior to A23187 challenge. By dosing squirrel monkeys with a lipoxygenase inhibitor prior to withdrawal of a blood sample, one can determine the ability of the lipoxygenase inhibitor to be absorbed into the bloodstream by measuring the inhibition of A23187 induced LTB₄ production ex vivo.
Squirrel monkeys (400-650g) were fasted for 18 hours, anesthetized and dosed either orally or intraperitoneally with test compound. After the desired time period, blood was withdrawn from the femoral vein. The blood (0.5 mL) was heparinized, preincubated at 37°C for 5 minutes and stimulated with A23187 in DMSO to give a final concentration of 30 microM. The reaction was terminated with EGTA (final concentration 10 microM), and the blood centrifuged. Levels of LTB₄ in the plasma were then determined by radioimmunoassay.
The results shown in Table 4 illustrate the ability of a prodrug of type 2a or 2b to be absorbed after ip or po dosing compared to the parent compound 1a.

Where [4] appears, read: 1 h, 30 mg/kg ip, 60 min after dosing, vehicle per footnotes 2-4, read-out: Percent Inh. Monkey 2.
The mark [5] stands for this setting: 1 h, 30 mg/kg ip, 60 min after dosing, vehicle per footnotes 2-4, read-out: Percent Inh. Monkey 3.
Setting [6] is: 1 h, 30 mg/kg ip, 60 min after dosing, vehicle per footnotes 2-4, read-out: Percent Inh. Monkey #1.
Where [7] appears, read: 1 h, 30 mg/kg po, 60 min after dosing, vehicle per footnotes 2-4, read-out: Percent Inh. Monkey 2.
The mark [8] stands for this setting: 1 h, 30 mg/kg po, 60 min after dosing, vehicle per footnotes 2-4, read-out: Percent Inh. Monkey #1.

Where a name gives a salt, the structure may show the parent alone. Read-outs that look alike come from different tables or passages of the source.

Take `CCc1cc(C=Cc2cccs2)cc(CC)c1O` [Compound 1i, 2,6-Diethyl-4-[2-(2-thienyl)ethenyl]phenol]: the inhibition at 1 µM on 5-lipoxygenase [1] was determined as 70%. Further, the “% Inh. PMN” value in the assay with 5-lipoxygenase [2] (30 mg/kg ip) is 74%; in the assay on 5-lipoxygenase [2] (30 mg/kg po) it was 51%. The “% Inh. Total Cells” value was 51% with 5-lipoxygenase [2] (30 mg/kg ip) and 65% in the assay on 5-lipoxygenase [2] (30 mg/kg po).

Take `C=CCc1cc(C=Cc2ccsc2)cc(C)c1O` [Compound 1v]: the inhibition at 1 µM at 5-lipoxygenase [1] came out at 75%.

Regarding `Cc1cc(C=Cc2cccs2)cc(C)c1OC(=O)CN` [Compound 2b, 2,6-Dimethyl-4-[2-(2-thienyl)ethenyl]phenyl glycinate hydrochloride], the inhibition at 30 mg/kg was 33% in assay [3] (1 h, 24 mg/kg instead of 30 mg/kg po, 60 min after dosing, dissolved in distilled water, read-out: Percent Inh. Monkey 3); 56% in assay [3] (setting [4]); 69% in assay [3] (setting [5]); 78% in assay [3] (setting [6]); 54% in assay [3] (setting [7]); 62% in assay [3] (setting [8]).

In the case of `CCc1cc(C=Cc2ccsc2)cc(OC)c1O` [Compound 1r], on 5-lipoxygenase [1], the inhibition at 1 µM stood at 82%.

In the case of `COc1ccc(C=Cc2cc(C(C)C)c(O)c(C(C)C)c2)cc1OC` [Compound 1aw], the inhibition at 1 µM on 5-lipoxygenase [1] was found to be 57%.

In the case of `CC(C)c1cc(C=Cc2ccc(F)cc2)cc(C(C)C)c1O` [Compound 1ax], the inhibition at 1 µM at 5-lipoxygenase [1] was found to be 32%.

Consider `COc1cc(C=Cc2cccnc2)cc(C)c1O` [Compound 1z], for which the inhibition at 1 µM on 5-lipoxygenase [1] came out at 52%.

On to `C=CCc1cc(C=Cc2cccnc2)cc(C)c1O` [Compound 1ac], for which, at 5-lipoxygenase [1], the inhibition at 1 µM is 61%.

`CCc1cc(C=Cc2ccsc2)cc(CC)c1O` [Compound 1u]: the inhibition at 1 µM on 5-lipoxygenase [1] was 66%.

For `Cc1cc(C=Cc2ccsc2)cc(Cl)c1O` [Compound 1s], on 5-lipoxygenase [1], the inhibition at 1 µM was found to be 75%.

`COc1cc(C=Cc2ccsc2)cc(F)c1O` [Compound 1t]: the inhibition at 1 µM at 5-lipoxygenase [1] stood at 59%.

For `Cc1cc(C=Cc2cccs2)cc(Cl)c1O` [Compound 1l], at 5-lipoxygenase [1], the inhibition at 1 µM came out at 84%.

Consider `CC(C)c1cc(C=Cc2cccs2)cc(C(C)C)c1O` [Compound 1j], for which, on 5-lipoxygenase [1], the inhibition at 1 µM is 78%.

`CC(C)c1cc(C=Cc2cccc(C(F)(F)F)c2)cc(C(C)C)c1O` [Compound 1ay]: the inhibition at 1 µM on 5-lipoxygenase [1] was determined as 34%.

As to `COc1cc(C=Cc2cccs2)cc(OC)c1O` [Compound 1n], the inhibition at 1 µM on 5-lipoxygenase [1] was found to be 78%.

For the molecule `CCc1cc(C=Cc2cccnc2)cc(CC)c1O` [Compound 1aa], at 5-lipoxygenase [1], the inhibition at 1 µM amounted to 59%.

Take `COc1ccc(C=Cc2cc(F)c(O)c(OC)c2)cc1` [Compound 1az]: the inhibition at 1 µM at 5-lipoxygenase [1] was determined as 63%.

`Cc1cc(C=Cc2ccc(Cl)s2)cc(C)c1O` [Compound 1b]: the inhibition at 1 µM on 5-lipoxygenase [1] amounted to 77%.

Turning to `Cc1cc(C=Cc2ccccn2)cc(C)c1O` [Compound 1w], the inhibition at 1 µM at 5-lipoxygenase [1] was 77%.

For the molecule `Cc1cc(C=Cc2cccs2)cc(C)c1OC(=O)CCC(=O)O` [Compound 2a, 2,6-Dimethyl-4-[2-(2-thienyl)ethenyl]phenyl succinate], the “% Inh. PMN” value in the assay on 5-lipoxygenase [2] (10 mg/kg po) was 93%. Moreover, the “% Inh. Total Cells” value in the assay with 5-lipoxygenase [2] (10 mg/kg po) is reported as 89%. The inhibition at 30 mg/kg stood at 83% in assay [3] (setting [4]); 89% in assay [3] (setting [5]); 62% in assay [3] (setting [6]); 71% in assay [3] (setting [7]); 66% in assay [3] (1 h, 30 mg/kg po, 60 min after dosing, vehicle per footnotes 2-4, read-out: Percent Inh. Monkey 3); 50% in assay [3] (setting [8]). The inhibition at 30 mg/kg was determined as 100% in assay [3] (2 h, 30 mg/kg po, 120 min after dosing, dissolved in dilute alkali, read-out: Percent Inh. Monkey 2); 61% in assay [3] (2 h, 30 mg/kg po, 120 min after dosing, dissolved in dilute alkali, read-out: Percent Inh. Monkey 3); 41% in assay [3] (2 h, 30 mg/kg po, 120 min after dosing, dissolved in dilute alkali, read-out: Percent Inh. Monkey #1); 65% in assay [3] (4 h, 30 mg/kg po, 240 min after dosing, dissolved in dilute alkali, read-out: Percent Inh. Monkey 2); 100% in assay [3] (4 h, 30 mg/kg po, 240 min after dosing, dissolved in dilute alkali, read-out: Percent Inh. Monkey 3); 43% in assay [3] (4 h, 30 mg/kg po, 240 min after dosing, dissolved in dilute alkali, read-out: Percent Inh. Monkey #1).

For `COc1ccc(C=Cc2cc(C(C)C)c(O)c(C(C)C)c2)cc1` [Compound 1av], the inhibition at 1 µM on 5-lipoxygenase [1] was 71%.

`COc1cc(C=Cc2ccc(Cl)s2)cc(C)c1O` [Compound 1g]: the inhibition at 1 µM on 5-lipoxygenase [1] was 76%.

Take `C=CCc1cc(C=Cc2cccs2)cc(C)c1O` [Compound 1h]: the inhibition at 1 µM on 5-lipoxygenase [1] was 70%. In the assay on 5-lipoxygenase [2] (10 mg/kg ip), the “% Inh. PMN” value is 46% and the “% Inh. Total Cells” value was found to be 55%.

For the molecule `Cc1cc(C=Cc2cccs2)cc(F)c1O` [Compound 1k], on 5-lipoxygenase [1], the inhibition at 1 µM was determined as 65%.

`COc1cc(C=Cc2ccsc2)cc(C)c1O` [Compound 1p]: the inhibition at 1 µM on 5-lipoxygenase [1] stood at 70%.

Take `Cc1ccc(C=Cc2cc(C)c(O)c(C)c2)s1` [Compound 1c]: the inhibition at 1 µM on 5-lipoxygenase [1] is 62%.

Consider `COc1cc(C=Cc2ccsc2)cc(OC)c1O` [Compound 1q], for which the inhibition at 1 µM at 5-lipoxygenase [1] came to 77%.

As to `Cc1cc(C=Cc2ccncc2)cc(C)c1O` [Compound 1y], the inhibition at 1 µM at 5-lipoxygenase [1] amounted to 46%.

`COc1cc(C=Cc2cccs2)cc(F)c1O` [Compound 1m]: on 5-lipoxygenase [1], the inhibition at 1 µM came out at 65%.
